Assay results reported in US20060004002A1 (priority 2004, published 2006).

The compounds below were run against T1, Recombinant human Src (Homo sapiens, UniProt P12931) (assay: Src tyrosine kinase activity assay with poly E4Y and 32P-ATP). Conditions: poly E4Y, 32P-ATP; NI = no inhibition; read-out: IC50 Value Src.
T1 construct: made in house; host or cells: baculovirus-insect cell system
T1 sequence (P12931 whole entry): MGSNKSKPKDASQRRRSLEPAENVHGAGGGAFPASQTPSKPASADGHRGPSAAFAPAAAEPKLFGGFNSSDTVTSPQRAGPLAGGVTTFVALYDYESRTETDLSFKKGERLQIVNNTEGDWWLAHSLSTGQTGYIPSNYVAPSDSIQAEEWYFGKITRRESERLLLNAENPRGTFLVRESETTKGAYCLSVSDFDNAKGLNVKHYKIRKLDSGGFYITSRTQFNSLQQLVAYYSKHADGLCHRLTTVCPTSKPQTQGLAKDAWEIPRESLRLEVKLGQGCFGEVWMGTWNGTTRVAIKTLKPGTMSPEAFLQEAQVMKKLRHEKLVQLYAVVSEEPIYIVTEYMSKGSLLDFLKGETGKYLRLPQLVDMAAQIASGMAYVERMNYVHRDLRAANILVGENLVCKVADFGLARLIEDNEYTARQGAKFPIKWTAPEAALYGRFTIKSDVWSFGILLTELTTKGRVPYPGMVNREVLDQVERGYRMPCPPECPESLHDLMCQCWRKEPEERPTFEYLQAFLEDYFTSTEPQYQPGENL
Type: biochemical
Method: Recombinant human Src was expressed using the baculovirus-insect cell system and purified as published (Budde et al., 1993 and 2000). Recombinant Csk and the FGF receptor (FGFr) were expressed as […] fusion proteins using the pGEX expression vector and E. coli, and purified as described (Sun & Budde, 1995).
The tyrosine kinase activity of Src, Csk and FGFr was determined using poly E4Y and ^32P-ATP. Briefly, enzymes were assayed in a reaction mixture […] consisting of 0.15 M EPPS-NaOH (pH 8.0) with 6 mM MgCl2, 0.2 mM γ^32P-ATP (0.2-0.4 mCi/μmol), 10% glycerol, 0.1% Triton X-100, and poly E4Y. Poly E4Y is a synthetic peptide whose phosphorylation is measured in this assay by the addition of the radioactively labeled phosphate from the ATP (Budde et al., 1995). […] When ATP was varied (0, 50, 100 and 250 μM), poly E4Y was kept constant at 150 μg/ml.
`CCNc1ccc(-c2sc3c(NN=Cc4ccc(OC)c(O)c4)ncnc3c2C)cc1` [Compound 48, 3-Hydroxy-4-methoxybenzaldehyde (6-(4-N-ethylaminophenyl)-7-methylthieno[3,2-d]pyrimidin-4-yl)hydrazone] gave an IC50 of 64 nM.
`CCOc1ccccc1-c1sc2c(NN=Cc3ccc(OC)c(OC)c3)ncnc2c1C` [Compound 53, 3,4-Dimethoxybenzaldehyde (6-(2-ethoxyphenyl)-7-methylthieno[3,2-d]pyrimidin-4-yl)hydrazone] was tested, and the IC50 was 4.6 nM.
Compound `CCOc1ccccc1-c1sc2c(NN=Cc3ccc(O)c(OC)c3)ncnc2c1C` [Compound 55] has an IC50 of 3.3 nM.
Work on `CCOc1cc(F)ccc1-c1sc2c(NN=Cc3ccc(OC)c(O)c3)ncnc2c1C` [Compound 57, 3-Hydroxy-4-methoxybenzaldehyde (6-(2-ethoxy-4-fluorophenyl)-7-methylthieno[3,2-d]pyrimidin-4-yl)hydrazone] yielded an IC50 of 4.9 nM.
`CCOc1cc(F)ccc1-c1sc2c(NN=Cc3ccc(OC)c(O)c3)ncnc2c1O` [Compound 61, 3-Hydroxy-4-methoxybenzaldehyde (6-(2-ethoxy-4-fluorophenyl)-7-hydroxythieno[3,2-d]pyrimidin-4-yl)hydrazone] was tested, and the IC50 was 6 nM.
Work on `CCOc1ccccc1-c1sc2c(NN=Cc3cc(OC)c(OC)c(OC)c3)ncnc2c1C` [Compound 63, 3,4,5-Trimethoxybenzaldehyde (6-(2-ethoxyphenyl)-7-methylthieno[3,2-d]pyrimidin-4-yl)hydrazone] yielded an IC50 of 1.3 nM.
`CCOc1ccccc1-c1sc2c(NN=Cc3cc(O)c(OC)c(OC)c3)ncnc2c1C` [Compound 64, 3,4-Dimethoxy-5-hydroxybenzaldehyde (6-(2-ethoxyphenyl)-7-methylthieno[3,2-d]pyrimidin-4-yl)hydrazone] was tested, and the IC50 was 1.2 nM.
For `CCOc1ccccc1-c1sc2c(NN=Cc3cc(OC)c(O)c(OC)c3)ncnc2c1C` [Compound 65, 3,5-Dimethoxy-4-hydroxybenzaldehyde (6-(2-ethoxyphenyl)-7-methylthieno[3,2-d]pyrimidin-4-yl)hydrazone], the IC50 was 0.99 nM.
`CCOc1ccccc1-c1sc2c(NN=Cc3ccc4c(c3)OCCO4)ncnc2c1C` [Compound 66, 2,3-Dihydro-benzo[1,4]dioxine-6-carbaldehyde (6-(2-ethoxyphenyl)-7-methylthieno[3,2-d]pyrimidin-4-yl)hydrazone] was tested, and the IC50 was 6.4 nM.
`CCOc1ccccc1-c1sc2c(NN=Cc3cccnc3)ncnc2c1CO` [Compound 70, 3-Pyridinecarboxaldehyde (6-(2-ethoxyphenyl)-7-hydroxymethylthieno[3,2-d]pyrimidin-4-yl)hydrazone] showed an IC50 of 20 nM.
`CCOc1ccccc1-c1sc2c(NN=Cc3cccs3)ncnc2c1CO` [Compound 71, 2-Thiophenecarboxaldehyde (6-(2-ethoxyphenyl)-7-hydroxymethylthieno[3,2-d]pyrimidin-4-yl)hydrazone] gave an IC50 of 28 nM.
`CCOc1ccccc1-c1sc2c(NN=Cc3ccc(C(=O)O)cc3)ncnc2c1CO` [Compound 72, 4-Carboxybenzaldehyde (6-(2-ethoxyphenyl)-7-hydroxymethylthieno[3,2-d]pyrimidin-4-yl)hydrazone] was tested, and the IC50 was 32 nM.
In the case of `CCOc1ccccc1-c1sc2c(NN=Cc3cccnc3)ncnc2c1O` [Compound 73, 3-Pyridinecarboxaldehyde (6-(2-ethoxyphenyl)-7-hydroxythieno[3,2-d]pyrimidin-4-yl)hydrazone], the IC50 is reported as 3 nM.
`CCOc1ccccc1-c1sc2c(NN=Cc3ccc(C(=O)O)cc3)ncnc2c1O` [Compound 74, 4-Carboxybenzaldehyde (6-(2-ethoxyphenyl)-7-hydroxythieno[3,2-d]pyrimidin-4-yl)hydrazone] showed an IC50 of 0.29 nM.
For `Cc1c(-c2ccc(O)cc2)sc2c(NN=Cc3cccnc3)ncnc12` [Compound 75, 3-Pyridinecarboxaldehyde (6-(4-hydroxyphenyl)-7-methylthieno[3,2-d]pyrimidin-4-yl]hydrazone], the IC50 was 21 nM.
`Cc1c(-c2ccc(O)cc2)sc2c(NN=Cc3ccc(C(=O)O)cc3)ncnc12` [Compound 76, 4-Carboxybenzaldehyde (6-(4-hydroxyphenyl)-7-methylthieno[3,2-d]pyrimidin-4-yl]hydrazone] showed an IC50 of 41 nM.
`CCOc1ccccc1-c1sc2c(NN=Cc3ccccc3Cl)ncnc2c1C` [Compound 77, 2-Chlorobenzaldehyde (6-(2-ethoxyphenyl)-7-methylthieno[3,2-d]pyrimidin-4-yl)hydrazone] showed an IC50 of 1400 nM.
In the case of `CCOc1ccccc1-c1sc2c(NN=Cc3ccccc3F)ncnc2c1C` [Compound 78, 2-Fluorobenzaldehyde (6-(2-ethoxyphenyl)-7-methylthieno[3,2-d]pyrimidin-4-yl)hydrazone], the IC50 is reported as 0.84 nM.
`CCOc1ccccc1-c1sc2c(NN=Cc3ccc(OC)cc3OC)ncnc2c1C` [Compound 79, 2,4-Dimethoxybenzaldehyde (6-(2-ethoxyphenyl)-7-methylthieno[3,2-d]pyrimidin-4-yl)hydrazone] was tested, and the IC50 was 250 nM.
Work on `C=CCOc1ccccc1-c1sc2c(NN=Cc3ccc(OC)c(O)c3)ncnc2c1C` [Compound 80, 3-Hydroxy-4-methoxybenzaldehyde (6-(2-allyloxyphenyl)-7-methylthieno[3,2-d]pyrimidin-4-yl)hydrazone] yielded an IC50 of 6.5 nM.
For `Cc1c(-c2ccccc2OCc2ccccc2)sc2c(NN=Cc3cccnc3)ncnc12` [Compound 82, 3-Pyridinecarboxaldehyde (6-(2-benzyloxyphenyl)-7-methylthieno[3,2-d]pyrimidin-4-yl)hydrazone], the IC50 was 3900 nM.
`CCCOc1ccccc1-c1sc2c(NN=Cc3ccc(OC)c(O)c3)ncnc2c1C` [Compound 83, 3-Hydroxy-4-methoxybenzaldehyde (7-methyl-6-(2-propoxyphenyl)thieno[3,2-d]pyrimidin-4-yl)hydrazone] showed an IC50 of 29 nM.
`CCOc1ccccc1-c1sc2c(NN=Cc3ccsc3)ncnc2c1O` [Compound 93, 3-Thiophenecarboxaldehyde (6-(2-ethoxyphenyl)-7-hydroxythieno[3,2-d]pyrimidin-4-yl)hydrazone] was tested, and the IC50 was 2.8 nM.
`CCOc1ccccc1-c1sc2c(NN=Cc3ncc[nH]3)ncnc2c1O` [Compound 97, 2-Imidazolecarboxaldehyde (6-(2-ethoxyphenyl)-7-hydroxythieno[3,2-d]pyrimidin-4-yl)hydrazone] was tested, and the IC50 was 55 nM.
In the case of `CCOc1cc(F)ccc1-c1sc2c(NN=Cc3cccs3)ncnc2c1C` [Compound 106, 2-Thiophenecarboxaldehyde (6-(2-ethoxy-4-fluorophenyl)-7-methythieno[3,2-d]pyrimidin-4-yl)hydrazone], the IC50 is reported as 9.5 nM.
Compound `CCOc1cc(F)ccc1-c1sc2c(NN=Cc3cccs3)ncnc2c1CO` [Compound 107, 2-Thiophenecarboxaldehyde (6-(2-ethoxy-4-fluorophenyl)-7-hydroxymethylthieno[3,2-d]pyrimidin-4-yl)hydrazone] has an IC50 of 55 nM.
With `CCOc1cc(F)ccc1-c1sc2c(NN=Cc3cccs3)ncnc2c1O` [Compound 109, 2-Thiophenecarboxaldehyde (6-(2-ethoxy-4-fluorophenyl)-7-hydroxythieno[3,2-d]pyrimidin-4-yl)hydrazone] the IC50 was 1.1 nM.
`CCOc1ccccc1-c1sc2c(NN=Cc3c[nH]c(=O)[nH]c3=O)ncnc2c1O` [Compound 113, 2,4-Dioxo-1,2,3,4-tetrahydro-pyrimidine-5-carbaldehyde (6-(2-ethoxyphenyl)-7-hydroxythieno[3,2-d]pyrimidin-4-yl)hydrazone] showed an IC50 of 28 nM.
For `CCOc1ccccc1-c1sc2c(NN=Cc3ccc(C(=O)OC)cc3)ncnc2c1O` [Compound 120, Methyl 4-formyl benzoate (6-(2-ethoxyphenyl)-7-hydroxythieno[3,2-d]pyrimidin-4-yl)hydrazone], the IC50 was 5.9 nM.
`CCOc1ccccc1-c1sc2c(NN=Cc3ccc(F)c(Cl)c3)ncnc2c1O` [Compound 125, 3-Chloro-4-fluorobenzaldehyde (6-(2-ethoxyphenyl)-7-hydroxythieno[3,2-d]pyrimidin-4-yl)hydrazone] was tested, and the IC50 was 45 nM.
`CCOc1ccccc1-c1sc2c(NN=Cc3ccc(C)s3)ncnc2c1O` [Compound 128, 5-Methyl-2-thiophenecarboxaldehyde (6-(2-ethoxyphenyl)-7-hydroxythieno[3,2-d]pyrimidin-4-yl)hydrazone] was tested, and the IC50 was 2.8 nM.
Compound `CCOc1ccccc1-c1sc2c(NN=Cc3ccoc3)ncnc2c1O` [Compound 129, 3-Furancarboxaldehyde(6-(2-ethoxyphenyl)-7-hydroxythieno[3,2-d]pyrimidin-4-yl)hydrazone] has an IC50 of 3.4 nM.
In the case of `CCOc1ccccc1-c1sc2c(NN=Cc3ccc(NC(C)=O)cc3)ncnc2c1O` [Compound 132, 4-Acetamidobenzaldehyde (6-(2-ethoxyphenyl)-7-hydroxythieno[3,2-d]pyrimidin-4-yl)hydrazone], the IC50 is reported as 2.4 nM.
In the case of `CCOc1ccccc1-c1sc2c(NN=Cc3ccc(N(C)C)cc3)ncnc2c1O` [Compound 133, 4-N,N-Dimethylaminobenzaldehyde (6-(2-ethoxyphenyl)-7-hydroxythieno[3,2-d]pyrimidin-4-yl)hydrazone], the IC50 is reported as 6.2 nM.
Compound `CCOc1ccccc1-c1sc2c(NN=Cc3cccc(F)c3)ncnc2c1C#N` [Compound 139, 3-Fluorobenzaldehyde (7-cyano-6-(2-ethoxyphenyl)thieno[3,2-d]pyrimidin-4-yl)hydrazone] has an IC50 of 4.7 nM.
`CCOc1cc(F)ccc1-c1sc2c(NN=Cc3cc(OC)c(OCCN(CC)CC)c(OC)c3)ncnc2c1O` [Compound 159, 4-(2-Diethylamino-ethoxy)-3,5-dimethoxy-benzaldehyde (6-(2-ethoxy-4-fluorophenyl)-7-hydroxythieno[3,2-d]pyrimidin-4-yl)hydrazone] showed an IC50 of 0.56 nM.
